Test results reported in patent US12090176B2 (priority 2019, dated 2024).
Like-named read-outs stand apart in the source and are kept apart here.

System: hematopoietic system damage model in which the mouse has been exposed to cyclophosphamide
Assay type: in vivo, KM mice
Parameters: unit not given here

`C#C[C@]1(O)[C@H](O)C[C@H]2[C@@H]3CCc4cc(OC5CCCC5)ccc4[C@H]3CC[C@@]21C` [Nilestriol] was tested, and the “peripheral blood WBC” value (nilestriol 10 mg/kg group, normal (before modeling)) was 13.8 ± 2.5 ×10^12, the “peripheral blood WBC” value (nilestriol 10 mg/kg once 6 h after cyclophosphamide, 1 d after modeling) was 3.6 ± 0.9 ×10^12 and the “peripheral blood WBC” value (nilestriol 10 mg/kg once 6 h after cyclophosphamide, 4 d after modeling) was 3.5 ± 2.5 ×10^12. The “peripheral blood WBC” value (nilestriol 10 mg/kg once 6 h after cyclophosphamide, 6 d after modeling) was 8.0 ± 2.5 ×10^12 and the “peripheral blood WBC” value (nilestriol 10 mg/kg once 6 h after cyclophosphamide, 12 d after modeling) was 12.0 ± 5.9 ×10^12.
